Key:
[1] = tested on: AAC model of heart failure; test: Abdominal aortic constriction (AAC) pressure overload heart failure model, echocardiography; type: in vivo, mouse; details: for fractional shortening (FS %): prevention mode
Description: Abdominal AAC, a common experimental procedure, was used to elicit pressure overload-induced heart failure in murine models. AAC provides a time-dependent, reproducible model of HF characterised by a significant rise in left ventricular weight, deleterious myocardial dilation, and a reduction in cardiac inotropy, and rise in myocardial fibrosis. Physiologically this mimics some of the clinical features of human aortic stenosis.
Male C57BL6 mice (Charles River) underwent AAC surgery at 4-5 weeks of age (between 20 and 22 g). Mice were anaesthetised with isoflurane, placed in a supine position on the procedure table, and an incision made along the ventral underbelly, extending from the xiphoid process of the sternum, down to the groin to reveal the abdominal muscle. The abdominal muscle was then cut the same distance along the linea alba to allow easy reattachment of the two halves. The two sides of the abdominal muscles were clipped back to reveal the abdominal gastrointestinal organs, and these were carefully manoeuvred to expose the underlying abdominal aorta. The aorta was cleaned of visceral fats, and carefully separated from parallel vasculature, whilst avoiding any spinal nerves. The abdominal aorta was then constricted using a 6-0 silk suture tied to the width of a 27-gauge needle at a position rostral to the renal artery bifurcation. Great care was taken to ensure the knot remained taut after tying. This was to ensure minimal variability amongst aortic lumen occlusion between animals, and therefore minimise differences in the degree of aortic stenosis. The skin and abdominal muscles were closed with a 6-0 silk suture thread. SHAM operated mice underwent the same operation with the exception of aortic constriction. In an effort to ensure reproducibility amongst AAC surgeries only male mice weighing between 20 and 22 g (correlating to 4-5 weeks of age) were used. Echocardiography was performed up to 3 days prior to surgery, 3 weeks following surgery, and then at 6 (and/or 12 weeks) following surgery. At the experimental end-point, mice were sacrificed and their lungs, kidneys and hearts excised. Hearts were halved longitudinally and either snap frozen in liquid nitrogen (for immunohistochemistry) or stored in an RNA later stabilisation solution (for RT-quantitative PCR) (ThermoFisher Scientific, Hertfordshire, UK).
Cilengitide (Bachem) was stored as a […] solution in saline at −20° C. prior to use, before thawing and serial diluting to an appropriate concentration with sterile saline for use. Injections were administered 3 times per week at the indicated doses intraperitoneally (IP). Low dose Cilengitide (ldCil) is classified as 50 μg/kg (27).
Cardiac function was assessed by transthoracic echocardiography using a VisualSonics Vevo 770 30-MHz transduction probe. Mice were anaesthetised with isoflurane (1.5% in O2), hair removed from their chest with hair removal cream, and then were placed in a supine position onto a warmed pad (46° C.). The chest was covered in ultrasound gel, and the transduction probe was positioned adjacent to the mitral valve, at the tips of the papillary muscles, and images were taken just below this to ensure positional reproducibility. LV internal diameter (LVID) and LV posterior wall thicknesses at diastole (d) and systole (s) were measured from short-axis M-mode images. LV ejection fraction (EF %) was calculated as follows: LVEF %=[(LVIDd)^3−(LVIDs)^3]/(LVIDd)^3×100; LV fractional shortening (FS %) was calculated as follows: LVFS %=(LVIDd−LVIDs)/LVIDd×100. Values were averaged across three beats. All efforts were made to ensure consistency between mouse echocardiographs, including: pad temperature to be maintained at 46° C., isoflurane anaesthesia at 1.5%, oxygen flow at 1.5 L/M, and cardiac function to be measured in the same anatomical location throughout.

[2] = tested on: AAC model of heart failure; test: Cardiac hypertrophy in AAC model (WGA cardiomyocyte perimeter, heart:body weight); type: in vivo, mouse; details: intervention mode, AAC surgery
Description: (§1) Male C57BL6 mice (Charles River) underwent AAC surgery at 4-5 weeks of age (between 20 and 22 g). Mice were anaesthetised with isoflurane, placed in a supine position on the procedure table, and an incision made along the ventral underbelly, extending from the xiphoid process of the sternum, down to the groin to reveal the abdominal muscle. The abdominal muscle was then cut the same distance along the linea alba to allow easy reattachment of the two halves. The two sides of the abdominal muscles were clipped back to reveal the abdominal gastrointestinal organs, and these were carefully manoeuvred to expose the underlying abdominal aorta. […] Hearts were halved longitudinally and either snap frozen in liquid nitrogen (for immunohistochemistry) or stored in an RNA later stabilisation solution (for RT-quantitative PCR) (ThermoFisher Scientific, Hertfordshire, UK).
5 μm snap-frozen sections were fixed in 10% acetone, washed in phosphate buffered saline, PBS, blocked in 5% normal goat serum/PBS for 1 h at room temperature and incubated with WGA directly conjugated to Alexa Fluor 488 (Invitrogen) (1:100) in blocking buffer (5% normal goat serum/PBS) for 2 h at room temperature. […] Images were taken with a Zeiss Axioplan microscope, and the cardiomyocyte size was analysed with ImageJ™ software. 100-200 cells per heart were measured to determine cardiomyocyte size.

[3] = tested on: Myh7; test: Myh7 transcript expression by RT-qPCR, whole heart preparations; type: in vivo, mouse; details: FIG. 10: whole heart, AAC surgery, ldCil 3 weeks after surgery, normalised to Gapdh
Description: as §1, with “aorta. The aorta was cleaned of visceral fats, and carefully separated from parallel vasculature, whilst avoiding any spinal nerves.” for “aorta.”, “UK). […]” for “UK).”
Complementary DNA (cDNA) synthesis was carried out using the Applied Biosystems High Capacity cDNA Reverse Transcription (RT) Kit on a thermal cycler as per the manufacturer's instructions. cDNA was made up to a total quantity of either 600 (most mouse tissue and/or cells), or 1000 ng (human heart tissue). […]

[4] = tested on: pathological angiogenesis; details: cited from earlier work
[5] = intervention mode, AAC surgery, ldCil 50 μg/kg 3 times a week from 3-6 weeks post-surgery
[6] = low doses, 50 μg/kg in vivo or 2 nM in vitro

Question: Which “fractional shortening over time” value ([1]; AAC surgery, ldCil 3-6 weeks post-surgery, between 3 and 6 weeks) does the source give for `CC(C)[C@H]1C(=O)N[C@@H](CCCN=C(N)N)C(=O)NCC(=O)N[C@@H](CC(=O)O)C(=O)N[C@H](Cc2ccccc2)C(=O)N1C` [Cilengitide, c(f*VRGD)] here?
Answer: elevated fractional shortening significantly

Question: What about the “persistence of fractional shortening rescue after treatment cessation” value ([1]; AAC surgery, ldCil 3-6 weeks post-surgery, followed to 12 weeks) of the same compound?
Answer: sustained up until 12 weeks post-surgery

Question: And the “FS % over time” value ([1]; SHAM surgery, ldCil 3-6 weeks post-surgery, between 3 and 6 weeks or 6 and 12 weeks)?
Answer: not significantly altered

Question: What about the “endpoint FS %” value [1, 5] of the same compound?
Answer: rescued

Question: And the “endpoint ejection fraction (EF %)” value [1, 5]?
Answer: rescued

Question: And the “endpoint left ventricular internal diameter during systole (LVID)” value [1, 5]?
Answer: rescued

Question: What about the “fractional shortening (FS %)” value ([1]; AAC surgery, 50 μg/kg IP 3 times a week for 7 weeks immediately after surgery, endpoint 7 weeks) of the same compound?
Answer: restored fractional shortening to that observed in SHAM treated mice

Question: What about the “fractional shortening (FS %)” value ([1]; AAC surgery, 500 μg/kg IP 3 times a week for 7 weeks) of the same compound?
Answer: but not 500 μg/kg, Cilengitide corrects the fractional shortening effects

Question: And the “fractional shortening (FS %)” value ([1]; SHAM surgery, 50 μg/kg IP 3 times a week for 7 weeks)?
Answer: no significant effect

Question: What about the “heart:body weight ratio” value [2] of the same compound?
Answer: blunted increases

Question: What about the “cardiomyocyte perimeter (WGA stained sections)” value ([2]; compared with vehicle) of the same compound?
Answer: reduced

Question: And the Myh7 levels [3]?
Answer: restored Myh7 levels back to untreated levels

Question: And the “chemotherapy efficacy in cancer models in vivo” value ([4]; ldCil with chemotherapy)?
Answer: improve chemotherapy efficacy

Question: What about the “effect on quiescent vasculature” value [4, 6] of the same compound?
Answer: no apparent effects

Question: And the pathological angiogenesis [4, 6]?
Answer: enhance pathological angiogenesis

Reference: patent US20220288156A1, “TREATMENT” (QUEEN MARY UNIVERSITY OF LONDON, priority 2019, published 2022)
